Reference: US12202841B2, “Therapeutic agents for enhancing epithelial and/or endothelial barrier function” (ARTUS THERAPEUTICS, INC., priority 2022, dated 2025)
Entries after “also recorded” stand apart in the source; their conditions may differ.

How the values were obtained:
[1] = tested on: TNBS-induced colitis in mice; settings: cited from earlier work
[2] = tested on: cytochrome P450 1A1 (Cyp1A1) and heme oxygenase 1 (HMOX1 or HO1) genes; settings: cited from earlier work
[3] = pH 2.0 in the presence of gastric enzymes; cited from earlier work
[4] = tested on: bone marrow derived macrophages; settings: cited from earlier work
[5] = tested on: LPS-elicited mouse peritonitis model; settings: cited from earlier work
[6] = tested on: DSS-induced colitis in mice; settings: cited from earlier work
[7] = tested on: HT-29 and Caco-2 intestinal epithelial cell lines; settings: RNA-seq and qRT-PCR; cited from earlier work
[8] = tested on: murine DSS model of ulcerative colitis; assay: Murine DSS model of ulcerative colitis (acute); assay type: in vivo, mouse; settings: for efficacy in the murine DSS model of colitis / DSS-elicited body weight loss / disease activity index (DAI) / colon length: 20 mg/kg oral gavage on days 4, 6, 8, 10; for efficacy in the murine DSS model of colitis: 2.5% DSS, C57BL/6 mice; for DSS-elicited body weight loss: FIG. 6E; for disease activity index (DAI): FIG. 6F; for colon length: day 12, FIG. 6B, 6C
Procedure: FIGS. 6A-F illustrate efficacy of ARTX-339, ARTX-405A, ARTX-413, and ARTX-425P1 in the murine DSS model of ulcerative colitis. A. C57BL/6 mice (7-8-week old mice) were supplied with 2.5% DSS in their drinking water for 7 days. Starting on day 4 post DSS treatment, mice were dosed once every other day with 100 μL vehicle (0.25% sodium carboxymethylcellulose used in the formulation of ARTX compounds), or 100 μL ARTX-339, ARTX-405A, ARTX-413, or ARTX-425P1 at 20 mg/kg body weight by oral gavage on days 4, 6, 8, and 10. Mice were euthanized on day 12. FITC dextran was administered to the mice via oral gavage 4 hours preceding euthanization. Following euthanization, colons were dissected, and their length measured. B. Measurements of colon length. C. Photographs of dissected colons. D. Measurement of FITC-dextran in serum following euthanization. […] Higher levels of serum FITC-dextran following DSS-treatment is an indication of a loss of barrier function. E. Body weight was measured every other day starting at day 0 with the initiation of DSS treatment. F. Disease activity index (DAI) scores were assigned every other day. The higher the DAI score, the worse the symptoms. **** indicates p<0.0001; *** indicates p<0.001; ** indicates=p<0.01.
A murine dextran sodium sulfate (DSS)-elicited model of ulcerative colitis was utilized to measure the efficacy of compounds in vivo. Oral administration of DSS in drinking water, a chemical colitogen with anticoagulant properties, leads to disruption of gut epithelium causing enhanced gut permeability, inflammation, and severe damage of gut barrier function^71,72. The rationale for using the murine DSS^71,72 model of UC is that it is a well-established gut epithelial barrier disrupting model that can be used to model both acute and chronic UC^70,71.
Starting on day 4 post DSS treatment, mice were dosed once every other day with 100 μL vehicle (0.25% sodium carboxymethylcellulose used in the formulation of ARTX compounds), or 100 μL ARTX-339, ARTX-405A, ARTX-413, or ARTX-425P1 at 20 mg/kg body weight by oral gavage on days 4, 6, 8, and 10. Mice were euthanized on day 12. FITC dextran was administered to the mice via oral gavage 4 hours prior to euthanization. Following euthanization, colons were dissected, and their lengths were measured.

Salmonella strains = assay: Ames test
Procedure: (§1) Step 4: Toxicity studies, including hERG and Ames tests, are conducted on compounds.
(§2) However, potential genotoxicity of ARTX-86 is consistent with its planar structure, which may allow ARTX-86 to intercalate into the DNA double helix. It's possible that reactive metabolites of ARTX-86 are being formed by the S9 fraction and the ability of ARTX-86 to intercalate into the DNA helix delivers the radicals or other toxic metabolites directly to the DNA.

hERG = hERG (Homo sapiens, UniProt Q12809); assay: hERG assay
Procedure: as §1

AhR signaling pathway [9] = assay: Luciferase AhR-reporter gene (DRE) assay in human intestinal epithelial cells; assay type: cell-based; settings: FIG. 7B
Procedure: (§3) Step 2: Selected compounds from step 1 were tested at a range of concentrations for activation of Cyp1A1 mRNA levels using qRT-PCR, for activation of Cyp1A1 enzymatic activity (ethoxyresorufin-O-deethylase (EROD) assay), or activation of an AhR-reporter gene driven by a so-called dioxin-response element (DRE) using commercially available kits. Activation of Cyp1A1 mRNA levels, activation of Cyp1A1 enzymatic activity, or activation of an AhR reporter gene construct driven by a DRE is generally considered to be indicative of a compound's ability to function as an AhR ligand. When activated by a ligand, cytosolic AhR translocates to the nucleus and dimerizes with the AhR nuclear translocator protein ARNT. The AhR/ARNT complex then binds to DREs to activate gene transcription.
(§4) In these experiments, human hepatic cells (FIG. 7A) or human intestinal epithelial cells (FIG. 7B) containing a luciferase AhR-reporter gene construct driven by a so-called dioxin-response element (DRE) were treated with various concentrations of ARTX-413 or with various concentrations of the well-studied AhR ligand β-naphthoflavone (BNF) using commercially available kits. Activation of Cyp1A1 mRNA levels, activation of Cyp1A1 enzymatic activity, or activation of an AhR reporter gene construct driven by a DRE is generally considered to be indicative of a compound's ability to function as an AhR ligand.

AhR signaling pathway [10] = assay: Luciferase AhR-reporter gene (DRE) assay in human hepatic cells; assay type: cell-based; settings: FIG. 7A
Procedure: as §3, §4

[11] = In vitro safety pharmacology assays
AhR = target: T1, AhR (Homo sapiens, UniProt P35869); settings: published data; cited from earlier work
T1 sequence (P35869 11-848): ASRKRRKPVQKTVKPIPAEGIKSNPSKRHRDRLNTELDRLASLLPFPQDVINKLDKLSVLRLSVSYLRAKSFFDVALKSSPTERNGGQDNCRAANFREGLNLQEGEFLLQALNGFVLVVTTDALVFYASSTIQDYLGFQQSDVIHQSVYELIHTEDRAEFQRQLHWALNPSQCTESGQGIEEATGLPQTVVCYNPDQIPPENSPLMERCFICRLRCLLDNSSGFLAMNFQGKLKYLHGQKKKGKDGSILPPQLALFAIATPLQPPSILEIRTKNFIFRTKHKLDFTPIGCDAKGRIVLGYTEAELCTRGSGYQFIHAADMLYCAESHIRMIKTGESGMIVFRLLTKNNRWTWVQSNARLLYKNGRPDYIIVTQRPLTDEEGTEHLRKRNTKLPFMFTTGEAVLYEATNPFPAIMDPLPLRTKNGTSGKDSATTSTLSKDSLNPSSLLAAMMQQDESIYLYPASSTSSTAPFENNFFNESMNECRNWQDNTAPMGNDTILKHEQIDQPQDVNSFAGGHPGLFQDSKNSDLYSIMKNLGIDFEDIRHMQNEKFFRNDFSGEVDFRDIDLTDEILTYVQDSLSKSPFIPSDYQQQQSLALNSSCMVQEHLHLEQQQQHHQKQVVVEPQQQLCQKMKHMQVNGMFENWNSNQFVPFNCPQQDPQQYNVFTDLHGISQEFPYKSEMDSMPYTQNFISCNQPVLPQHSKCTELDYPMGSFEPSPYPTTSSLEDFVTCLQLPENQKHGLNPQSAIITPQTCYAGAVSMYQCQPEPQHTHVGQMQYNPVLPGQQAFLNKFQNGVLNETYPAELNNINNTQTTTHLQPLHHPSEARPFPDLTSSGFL

[12] = extensively tested; cited from earlier work
[13] = Preliminary PK studies in rats; settings: rat, in vivo
Source text: as §2

Cyp1A1 = assay: Activation of Cyp1A1 expression; assay type: cell-based
Procedure: as §3

Acute toxicity in rats = settings: rat, in vivo
Source text: as §2

[14] = tested on: TNBS-induced colitis in mice; assay: Murine TNBS model of ulcerative colitis; assay type: in vivo; settings: TNBS mouse model of UC
Procedure: FIGS. 2A-D illustrates that UAS03 is efficacious in a mouse 2,4,6-trinitrobenzenesulfonic acid (TNBS) model when administered either pre- or post-TNBS treatment. Pre-treatment: Mice (n=10 per group) were given UAS03 orally QD (20 mg/kg) for 7 days followed by administration of TNBS. Mice were euthanized 72 h post-TNBS treatment. Post-treatment: Mice (n=10 per group) received UAS03 QD (20 mg/kg) 24, 48, and 72 h post-TNBS. A) Ratio of colon weight/length. B) Intestinal permeability evaluated using a FITC-dextran leakage assay. C) Serum levels of TNF-α measured using a standard ELISA method. D) Claudin-4 (Cldn4) expression in mouse colons. […] Error bars, ±SEM; ***p<0.001.
Intra-rectal administration of 2,4,6-Trinitrobenzenesulfonic acid (TNBS) induces CD4^+-dependent colitis in mice resulting in increased intestinal permeability, shortening of colons, and increased inflammation^70. […] The symptoms that were reversed included body weight loss, colon weight/length ratio (FIG. 2A), increased gut permeability (FIG. 2B), and enhanced levels of inflammatory cytokines (FIG. 2C)^44. […] The beneficial effects of UAS03 in TNBS-treated mice were not observed in either AhR^−/− or Nrf2^−/− mutant mice^44. […] UAS03 was also efficacious in both acute and chronic dextran sodium sulfate (DSS)-induced^71,72 colitis models^44. […]

hERG, sequence (Q12809 whole entry): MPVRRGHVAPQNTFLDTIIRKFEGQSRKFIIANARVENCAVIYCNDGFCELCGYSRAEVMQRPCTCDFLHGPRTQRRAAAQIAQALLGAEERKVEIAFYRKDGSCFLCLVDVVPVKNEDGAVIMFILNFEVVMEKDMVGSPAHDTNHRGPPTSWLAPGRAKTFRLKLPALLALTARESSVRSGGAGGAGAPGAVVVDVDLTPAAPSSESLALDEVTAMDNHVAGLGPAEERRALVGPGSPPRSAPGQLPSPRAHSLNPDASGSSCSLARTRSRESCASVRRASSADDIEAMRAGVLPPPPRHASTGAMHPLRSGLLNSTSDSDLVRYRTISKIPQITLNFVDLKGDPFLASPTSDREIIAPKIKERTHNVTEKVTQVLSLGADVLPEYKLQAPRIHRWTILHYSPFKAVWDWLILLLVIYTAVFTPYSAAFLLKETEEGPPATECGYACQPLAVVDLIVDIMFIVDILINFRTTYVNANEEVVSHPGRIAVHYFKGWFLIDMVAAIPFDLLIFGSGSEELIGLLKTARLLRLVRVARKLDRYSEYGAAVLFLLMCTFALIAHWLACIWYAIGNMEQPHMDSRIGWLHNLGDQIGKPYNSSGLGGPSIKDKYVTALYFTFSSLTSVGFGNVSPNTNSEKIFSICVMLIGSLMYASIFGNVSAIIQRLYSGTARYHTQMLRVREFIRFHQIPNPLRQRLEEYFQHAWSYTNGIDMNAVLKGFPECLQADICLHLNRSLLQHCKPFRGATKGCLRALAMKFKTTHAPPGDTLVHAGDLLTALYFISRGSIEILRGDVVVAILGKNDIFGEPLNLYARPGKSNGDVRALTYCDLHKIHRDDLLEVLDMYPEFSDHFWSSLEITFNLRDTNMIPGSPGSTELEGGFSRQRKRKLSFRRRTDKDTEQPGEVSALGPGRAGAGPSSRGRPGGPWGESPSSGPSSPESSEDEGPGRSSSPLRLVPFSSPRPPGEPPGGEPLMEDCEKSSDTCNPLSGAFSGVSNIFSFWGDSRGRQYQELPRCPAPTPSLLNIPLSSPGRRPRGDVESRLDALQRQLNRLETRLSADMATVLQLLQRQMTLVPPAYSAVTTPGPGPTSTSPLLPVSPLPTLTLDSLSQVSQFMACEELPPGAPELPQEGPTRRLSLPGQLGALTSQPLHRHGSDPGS

SMILES: Oc1ccc2c(c1)COc1cc(O)ccc1-2 [UAS03]
- potency relative to UroA ([1]; TNBS model): about 10 fold
- beneficial effects in AhR−/− or Nrf2−/− mutant mice ([1]; TNBS-treated AhR−/− or Nrf2−/− mice): not observed
- claudin 4 (Cldn4) expression / protein levels ([1]; TNBS-treated mice, colons): induced the expression; also recorded: reversed a dramatic decrease
- UC symptoms (body weight loss, colon weight/length ratio, gut permeability, inflammatory cytokines) ([1]; orally QD or BID for three days following TNBS, 20 mg/kg): dramatically reversed
- development of TNBS-elicited symptoms ([1]; pre-treated QD for 7 days at 20 mg/kg): blocked
- expression of Cyp1A1 and HO1 genes [2]: activated
- time stable [3]: at least 12 hours
- levels of LPS-induced TNF-α, IL-6, CXCL-1, and IL-1β [4]: markedly decreased
- levels of LPS-induced TNF-α, IL-6, CXCL-1, and IL-1β [5]: markedly decreased
- protection in chronic DSS model ([6]; 4 cycles of 2% DSS, 90 day experiment, UAS03 QD 20 mg/kg): protected against DSS-induced chronic colitis
- efficacy in acute and chronic DSS-induced colitis models ([6]; mouse, in vivo): efficacious
- expression of tight junction proteins claudin 4, ZO-1, and occludin 1 [7]: upregulates

SMILES: Oc1ncc2c(n1)OCc1cc(F)ccc1-2 [ARTX-413, 8-fluoro-6H-isochromeno[3,4-d]pyrimidin-3-ol]
- efficacy in the murine DSS model of colitis [8]: exhibited efficacy
- DSS-elicited body weight loss [8]: highly effective
- disease activity index (DAI) [8]: highly effective
- colon length [8]: highly effective
- Ames test result (Salmonella strains; concentrations as high as 1.0 mg/mL): non-genotoxic
- hERG inhibition / risk of cardiotoxicity (hERG; FIG. 8): low risk of cardiotoxicity
- activation of AhR reporter gene (AhR signaling pathway [9]): activate the AhR signaling pathway
- activation of AhR reporter gene (AhR signaling pathway [10]): activate the AhR signaling pathway
- off-target effects [11]: did not identify any significant off-target effects

SMILES: CC(C)[C@@H]1Oc2cc(O)ccc2-c2ccc(F)cc21 (single isomer, unassigned) [ARTX-425P1]
- efficacy in the murine DSS model of colitis [8]: exhibited efficacy
- DSS-elicited body weight loss [8]: highly statistically significant
- disease activity index (DAI) [8]: highly statistically significant
- colon length [8]: a statistically significant increase in colon length was not observed

SMILES: Oc1cc(O)c2c(c1)C1(CCCC1)c1cc(F)ccc1-2 [ARTX-405A, 7′-fluorospiro[cyclopentane-1,9′-fluorene]-2′,4′-diol]
- efficacy in the murine DSS model of colitis [8]: exhibited efficacy
- DSS-elicited body weight loss [8]: highly effective
- disease activity index (DAI) [8]: highly effective
- colon length [8]: highly effective

SMILES: O=c1oc2cc(O)ccc2c2ccc(O)cc12 [UroA, Urolithin A]
- hydrolysis [3]: rapidly hydrolyzed
- AhR ligand activity (AhR): AhR ligand that activates the AhR signaling pathway
- genotoxicity [12]: no indications of genotoxicity have been reported

SMILES: Oc1ccc2c(c1)OCc1cc(F)ccc1-2 [ARTX-86]
- efficacy compared with UAS03 ([8]; DSS mouse model of UC): equally efficacious as UAS03
- Ames test result (Salmonella strains; one of the Salmonella strains, with / without liver S9 enzymes): tested positive in the presence but not the absence of liver S9 enzymes
- half-life ([13]; 20 mg/kg): 2.22 ± 0.5 h
- Cmax ([13]; dosed at 20 mg/kg): 92 ± 15 ng/mL
- activating the expression of Cyp1A1, compared with UroA and UAS03 (Cyp1A1): comparably active as UroA and UAS03
- cardiotoxicity in hERG assay (hERG; up to 60 times the efficacious dose): not cardiotoxic
- NOAEL (Acute toxicity in rats): 1000 mg/kg/day
- MTD (Acute toxicity in rats; acute toxicity): > 2000 mg/kg
- efficacy compared with UAS03 [14]: equally efficacious as UAS03
